“Also recorded” adds a separate entry of the source.
Key:
Notch-1 (NICD) [1] = assay: NICD nuclear translocation in RIN cells (indirect immunofluorescence, immunoblot of nuclear extracts); format: cell-based, rat; conditions: for effect on Ex-4-mediated translocation of NICD: H89 10 μM, L-685,458 pretreatment for 2 h
Procedure: (§1) Islet isolation, cell culture and treatments. Adult rat (Sprague-Dawley) and mouse (C57/BL6) islets were isolated by collagenase P digestion and cultured overnight in M199 medium (5 mM glucose). RIN 1046-38 β-cells were cultured as outlined previously (Wang, et al., Endocrinology, 142:1820-1827 (2001)). Isolated human islets came from David Harlan, Transplant Section, NIDDK. Ex-4, GLP-1, CCK (all used at concentrations previously shown to cause maximum insulin release), Ex and the γ-secretase inhibitor, L-685,458, were obtained from Bachem. H89 was from Calbiochem, insulin was from Sigma. The Jagged peptides, R-JAG […] (SEQ ID NO:1), JAG-1 […] (SEQ ID NO:2), and scrambled control peptide without agonist activity, sc-Jagged […] (Nickoloff, et al., Cell Death Differ, 9842-855 (2002)) (SEQ ID NO:3), were synthesised by New England Peptide Inc.
(§2) Cell extracts, immunoblotting and RT-PCR. Cytosolic and nuclear cell extracts were prepared using the NE-PER Nuclear and Cytoplasmic Extraction Reagents (Pierce) in accordance with the manufacturer's instructions. Whole cell extracts were isolated as described (Wang, et al., Endocrinology, 142:1820-1827 (2001)). Cell extracts were separated by Tris-glycine (10%, 4-12%) PAGE (Invitrogen) and immunoblofted as described (Wang, et al., Endocrinology, 142:1820-1827 (2001)) using the following antibodies: rabbit anti-Notch1 (1:5,000), rabbit anti-IRS2 (1:1,000), both from Upstate Biotechnology, rabbit N-terminal anti-PDX-1 (1:10,000, from Joel Habener (Stanojevic, et al., Endocrinology, 145:2918-2928 (2004)). Total RNA was extracted using Triazol (Invitrogen) according to the manufacturer's instructions. RT-PCR was performed using the Qiagen OneStep RT-PCR kit. See Table 2 for primer sequences and annealing temperatures. Each target gene was amplified over 35 cycles.
(§3) RIN cells were permeabilized in Triton-X (0.1%) on ice and blocked for 1 h at room temperature in 3% BSA and 0.1% Tween in PBS. They were incubated overnight at 4° C. with the primary antibody, washed in PBS and incubated with fluorescent labelled secondary antibody for 1 h, washed and mounted with fluorescence mounting medium (Vector Laboratories). Mouse sections (FIG. 9) for indirect immunofluorescence were antigen-retrieved, processed in the same manner as the cells and stained with anti-Notch-1. Indirect immunofluorescent staining was imaged using a Zeiss LSM-410 inverted microscope. AlexaFluor antibodies (Molecular Probes; Eugene, Oreg.) were excited with the 488-nm line of a krypton-argon laser and recorded at the presence of emission filter BP515-565 nm. The microscope objective was a Zeiss 63×NA 1.4 oil immersion and the confocal pinhole was set to obtain spatial resolution of […] in the horizontal plane and […] in the axial dimension.

γ-secretase = biological target: T1, γ-secretase (Rattus norvegicus, UniProt P97887); assay: γ-secretase activity assay (Notch ΔE-GVP / UAS-luciferase reporter) in RIN cells; format: cell-based; conditions: for effect on Ex-4-activated γ-secretase cleavage / UAS promoter activation: RIN cells transfected with Notch ΔE-GVP
T1 construct: endogenous in cells; host or cells: RIN 1046-38 rat β-cells
Procedure: Transfections and Luciferase assays. The rat insulin-I promoter linked to the luciferase reporter plasmid pGL3 (Ins-1-luc) was obtained from Michael Freemark (Fleenor and Freemark, Endocrinology, 142:2805-2810 (2001)), and both the Notch ΔE-GVP plasmid and UAS responsive reporter gene construct MH100 were from Johan Lundkvist (Karlstrom, et al., J Biol Chem, 277:6763-6766 (2002)). For the insulin reporter gene assay, RIN cells in 35 mm dishes were co-transfected with 0.8 μg ins-1-luc plasmid and 0.7 μg of pCMV-β-galactosidase using 8 μl of Polyfect (Qiagen). For the γ-secretase activity assay RIN cells in 12 well plates were co-transfected with 30 ng of pCMV-β-galactosidase, 200 ng of MH100, 100 ng Notch ΔE-GVP plasmids for each well using Lipofectamine PLUS (Invitrogen). The transfected cells were allowed to recover for 24-48 h in medium with serum and subsequently incubated in insulin secretion assay buffer (for the insulin promoter assay) or in medium without serum (for the γ-secretase assay) with or without Ex-4 and inhibitors. Ins-1-luc and Notch ΔE-GVP activities were measured using assay system kits from Promega according to the manufacturer's instructions using a Berthord LB 9501 luminometer. The luciferase values were normalized to β-galactosidase measured using the luminometer for lysates from 35 mm dishes and an ELISA plate reader (Spectra Max Plus, Molecular Devices) for lysates from 12 well plates.

C57/BL6 mouse islets = assay: Immunoblotting for IRS2 and PDX-1 in C57/BL6 mouse islets treated for 8 h; format: cell-based; conditions: for PDX-1 levels: islets
Procedure: as §1, §2

RIN cells [2] = assay: [3H]thymidine uptake (β-cell proliferation) in RIN cells; format: cell-based, rat; conditions: 8 h treatment
Procedure: (§4) Insulin assays and cell turnover studies. Insulin secretion assays were performed and intracellular insulin was extracted as described (Wang, Y. et al., J. Clin. Invest., 99:2883-2889 (1997)), followed by insulin quantification using an ELISA kit (Crystal Chem). Cells were treated for 8 h as indicated and pulsed with [^3H]thymidine (PerkinElmer Life Sciences) at 37° C., followed by lysis of the cells and [^3H] counting (He, et al., J Biol Chem, 278:27096-27104 (2003)).

Notch-1 (NICD) [3] = assay: NICD in islet nuclei of wild-type and GLP-1R null mice after intraperitoneal treatment; format: in vivo, mouse; conditions: fasted, 1 nmol/kg IP
Procedure: as §3, with “Animal Protocols. Wild-type and GLP-1R −/− mice (Scrocchi, L. A. et al. Nat. Med., 2:1254-1258 (1996)) were injected intraperitoneally with Ex-4 (1 nmol/kg) or glucose (1 g/kg) after overnight fast and their pancreata excised. Animal protocols were approved by the NIA Animal Care and Use Committee. RIN” for “RIN”

RIN 1046-38 β-cells = assay: Insulin secretion and intracellular insulin in RIN cells (ELISA); format: cell-based, rat; conditions: for insulin release, R-JAG and Ex-4 together vs either alone: 6 h time point; for total intracellular insulin: 6 h treatment; for insulin release into the medium: time course
Procedure: as §4

RIN cells [4] = assay: RT-PCR and immunoblotting of whole RIN cell extracts (insulin, IRS2, PDX-1, Notch-1); format: cell-based, rat
Procedure: as §2, with “Each target gene was amplified over 35 cycles.” left out

Rat islets = assay: Rat islets: real time PCR and intracellular insulin after R-JAG; format: cell-based
Procedure: Rat islets (80) were pre-incubated for 2 periods of 30 min in the glucose-free buffer in a 37° C. humidified air incubator. […] At the end of the experiment, islets were centrifuged and any residual medium removed and stored −20° C. for quantification of insulin released. The pellet was suspended in ice cold acid-ethanol (500 μl) and homogenized. After centrifugation of the homogenate (1,400 g, 4° C.) the supernatant was collected for measurement of intracellular insulin using the Rat insulin ELISA kit from Crystal Chem. Inc. (Chicago, Ill.). The pellet was lysed with 0.2 ml formic acid and saved at […] for analysis of protein by the Bradford method (Bio-Rad Laboratories, Inc. Richmond, Calif.). A control condition with insulin secretion assay buffer containing just 6 mM glucose was used. Insulin values were normalized to protein content.
Reverse transcription. DNA-free RNA was isolated using the Triazol extraction method (Invitrogen; Carlsbad, Calif.) following the manufacturer's protocol. DNAse I treatment and inactivation, and reverse transcription reaction primed with random sequence oligonucleotides were performed using Ambion instruction manual and Cells-to-cDNA II kits components in the I-Cycler thermocycler from BioRad. As a control, a mock reverse transcription containing all RT reagents except the Reverse Transcriptase, which was substituted with water, was used.
Real Time PCR. Real time PCR reactions were performed using the ABI PRISM™ 7700 Sequence Detection Systems (Applied Biosystems; Valencia, Calif.) and the SYBER Green kit from Applied Biosystems. All PCR reactions were performed in triplicate using the SYBER Green master mix (12.5 μl) from Applied Biosystems, 1 μg of cDNA, 2.5 μl of each 0.5 μM primer and water for a 25 μl reaction. Cycling parameters for amplifications of target genes were (95° C. for 10 min, at 94° C. for 15 seconds, 60° C. for 1 min)×40 cycles. The target gene copy number in unknown samples was quantified by measuring the threshold cycle CT and by using the standard curve to determine the starting copy number. The β-actin gene was an endogenous control. Final results were expressed as n-fold differences relative to untreated controls.

O=S(=O)(NCCNC/C=C/c1ccc(Br)cc1)c1cccc2cnccc12 [H89]
effect on glucose-mediated NICD translocation (Notch-1 (NICD) [1]; RIN cells): prevented | effect on Ex-4-mediated translocation of NICD (Notch-1 (NICD) [1]; RIN cells): diminished | effect on Ex-4-activated γ-secretase cleavage / UAS promoter activation (γ-secretase): greatly diminished; also recorded: abrogated; also recorded: blocked

CC(C)C[C@H](NC(=O)[C@H](Cc1ccccc1)C[C@@H](O)[C@H](Cc1ccccc1)NC(=O)OC(C)(C)C)C(=O)N[C@@H](Cc1ccccc1)C(N)=O [L-685,458]
effect on Ex-4-mediated translocation of NICD (Notch-1 (NICD) [1]; RIN cells): inhibited | effect on Ex-4-mediated increase in IRS2 levels (C57/BL6 mouse islets; C57/BL6 mouse islets): diminished; also recorded: decreased | effect on R-JAG-mediated increases in IRS2 levels (C57/BL6 mouse islets; C57/BL6 mouse islets): prevented; also recorded: completely abrogated | effect on Ex-4-activated γ-secretase cleavage / UAS promoter activation (γ-secretase): greatly diminished; also recorded: abrogated; also recorded: blocked

Exendin 9-39
NICD nuclear localization with GLP-1 (50 nM) in conjunction with the GLP-1R antagonist (Notch-1 (NICD) [1]; RIN cells, antagonist 500 nM): equivalent to glucose treatment alone

Exendin-4 [Ex-4]
[3H]thymidine uptake, increase above glucose treatment (RIN cells [2]): increased | NICD translocation to islet cell nuclei (Notch-1 (NICD) [3]): caused NICD translocation to nuclei of practically all islet cells; also recorded: increased NICD in all islet cells | insulin release, R-JAG and Ex-4 together vs either alone (RIN 1046-38 β-cells; RIN cells): greater that either alone | total intracellular insulin (RIN 1046-38 β-cells; RIN cells): increased | insulin release into the medium (RIN 1046-38 β-cells; RIN cells): acutely increased | PDX-1 levels (C57/BL6 mouse islets): increased | increase in transcriptional activation of the UAS promoter (cleavage of Notch ΔE-GVP) (γ-secretase; RIN cells transfected with Notch ΔE-GVP and MH100): at least 20 fold

R-JAG: Jagged-related peptide, Notch receptor binding fragment, CDDYYYGFGCNKFGRPRDD (SEQ ID NO:1)
[3H]thymidine uptake, increase above glucose treatment (RIN cells [2]): 30% | PDX-1 levels (RIN cells [4]): increased | IRS2 and insulin mRNA with replenishing every 2 h (RIN cells [4]; RT-PCR): sustained elevations | IRS-2 mRNA (RIN cells [4]; RT-PCR): increased | insulin mRNA levels (RIN cells [4]; RT-PCR): increased | time course of IRS2 and insulin mRNA after single treatment (RIN cells [4]; RT-PCR 27 cycles, normalized to GAPDH): diminished after 8 h | IRS-2 protein levels (RIN cells [4]; immunoblot): increased | total Notch1 levels (RIN cells [4]; immunoblot): increased | intra-cellular insulin (Rat islets; R-JAG 10 μM, glucose 6 mM): increase | IRS-2 transcription (Rat islets; over 2 and 6 hours): increases | PDX-1 transcription (Rat islets; over 2 and 6 hours): increases | insulin transcription (Rat islets; over 2 and 6 hours): increases | trypan blue exclusion (cell death) (RIN 1046-38 β-cells; RIN cells treated with R-JAG): continued to exclude trypan blue | insulin secretion, replenishment every two hours vs single treatment (RIN 1046-38 β-cells; RIN cells, 6 h): greater effect | insulin release, R-JAG and Ex-4 together vs either alone (RIN 1046-38 β-cells; RIN cells): greater that either alone | total intracellular insulin (RIN 1046-38 β-cells; RIN cells): significant increase | insulin release into the medium (RIN 1046-38 β-cells; RIN cells): elevated insulin release into the medium after 2.5 h had elapsed | PDX-1 levels (C57/BL6 mouse islets): increased | increase in IRS-2 protein levels (C57/BL6 mouse islets; mouse islets of Langerhans): 1.5 fold

insulin
nuclear NICD / NICD translocation (Notch-1 (NICD) [1]; RIN cells treated with secretagogues): equivalent to control samples

scrambled Jagged peptide: scrambled control peptide without agonist activity, RCGPDCFDNYGRYKYCF (SEQ ID NO:3)
[3H]thymidine uptake, increase above glucose treatment (RIN cells [2]): no effect

From patent publication US7888116B2, “Uses of notch receptors, notch ligands, and notch modulators in methods related to metabolic diseases” (The United States of America as represented by the …, priority 2005, dated 2011)
